Experimental data from the NIST ThermoML archive (doi:10.1016/j.tca.2018.11.018).

Assay: xn = mol fraction of the nth substance listed
Conditions: 100 kPa, Liquid; for viscosity: Falling or rolling sphere viscometry; for mass density: Vibrating tube method

CCCC[n+]1ccccc1.[Br-] [1-butylpyridinium bromide] + O
Conditions	mass density [kg/m3]	viscosity [mPa·s]
298.15 K, x1 = 0.03	1068.5	1.544
298.15 K, x1 = 0.06	1118.5	2.378
298.15 K, x1 = 0.09	1154.8	3.424
298.15 K, x1 = 0.13	1189.9	5.218
298.15 K, x1 = 0.17	1214.8	8.606
298.15 K, x1 = 0.211	1233.8	12.22
298.15 K, x1 = 0.25	1247.8	16.44
298.15 K, x1 = 0.291	1259.5	24.37
298.15 K, x1 = 0.332	1268.9	30.3
298.15 K, x1 = 0.377	1277.4	42.55
303.15 K, x1 = 0.03	1066.2	1.36
303.15 K, x1 = 0.06	1115.6	2.067
303.15 K, x1 = 0.09	1151.6	2.951
303.15 K, x1 = 0.13	1186.5	4.45
303.15 K, x1 = 0.17	1211.3	7.401
303.15 K, x1 = 0.211	1230.3	10.37
303.15 K, x1 = 0.25	1244.4	13.83
303.15 K, x1 = 0.291	1256.1	18.59
303.15 K, x1 = 0.332	1265.6	24.78
303.15 K, x1 = 0.377	1274	34.24
308.15 K, x1 = 0.03	1063.8	1.212
308.15 K, x1 = 0.06	1112.6	1.82
308.15 K, x1 = 0.09	1148.3	2.575
308.15 K, x1 = 0.13	1183	3.851
308.15 K, x1 = 0.17	1207.8	6.345
308.15 K, x1 = 0.211	1226.8	8.845
308.15 K, x1 = 0.25	1240.9	11.68
308.15 K, x1 = 0.291	1252.7	15.55
308.15 K, x1 = 0.332	1262.2	20.41
308.15 K, x1 = 0.377	1270.7	27.78
313.15 K, x1 = 0.03	1061.2	1.089
313.15 K, x1 = 0.06	1109.6	1.617
313.15 K, x1 = 0.09	1145	2.268
313.15 K, x1 = 0.13	1179.5	3.356
313.15 K, x1 = 0.17	1204.2	5.426
313.15 K, x1 = 0.211	1223.3	7.548
313.15 K, x1 = 0.25	1237.5	10.01
313.15 K, x1 = 0.291	1249.3	13.05
313.15 K, x1 = 0.332	1258.8	16.97
313.15 K, x1 = 0.377	1267.3	22.77
318.15 K, x1 = 0.03	1058.6	0.985
318.15 K, x1 = 0.06	1106.4	1.447
318.15 K, x1 = 0.09	1141.6	2.014
318.15 K, x1 = 0.13	1176	2.954
318.15 K, x1 = 0.17	1200.7	4.671
318.15 K, x1 = 0.211	1219.8	6.488
318.15 K, x1 = 0.25	1234	8.493
318.15 K, x1 = 0.291	1245.9	11.08
318.15 K, x1 = 0.332	1255.4	14.29
318.15 K, x1 = 0.377	1264	18.95
323.15 K, x1 = 0.03	–	0.897
323.15 K, x1 = 0.06	–	1.306
323.15 K, x1 = 0.09	–	1.805
323.15 K, x1 = 0.13	–	2.617
323.15 K, x1 = 0.17	–	4.051
323.15 K, x1 = 0.211	–	5.616
323.15 K, x1 = 0.25	–	7.331
323.15 K, x1 = 0.291	–	9.521
323.15 K, x1 = 0.332	–	12.17
323.15 K, x1 = 0.377	–	15.95
